According to article PMC8080777, “Discovery, optimization, and evaluation of non-bile acid FXR/TGR5 dual agonists” (Scientific Reports, 2021):

Key:
LXR alpha = molecular target: T1, LXR alpha (Homo sapiens, UniProt Q13133); test: Selectivity, NR functional assay; format: cell-based
T1 construct: Eurofine Cerep / Eurofine Panlabs Discovery Services
Source text: (§1) Compound 20p was screened against a broad panel of NRs and GPCRs to determine its agonist activity in vitro. […]
(§2) The selectivity tests of compound 20p were investigated by Eurofine Cerep (86600, Celle-Levescault, France) and Eurofine Panlabs Discovery Services (No. 25, Wugong, 6th Road, Wugu District, New Taipai City, Taiwan). Compound binding was caluculated as a % inhibition of the binding of radioactively labeled ligand specific for each target. Cellular agonist effect wa calculated as a % of control response to a known reference agonist for each target and cellular antagonist effect as caluculated as a % inhibition of control reference agonist response for each target at 30 µM of compound 20p.
(§3) 12.3%; CAR -2.5%, PPAR alpha 0.0%; PPAR delta -3.6%; PPAR gamma -1.0%; PXR 4.5%; ER alpha -16.6%; ER beta 17% at 30 µM.

PPAR delta = molecular target: T2, PPAR delta (Homo sapiens, UniProt Q03181); test: Selectivity, NR functional assay; format: cell-based
T2 construct: Eurofine Cerep / Eurofine Panlabs Discovery Services
T2 sequence (Q03181 whole entry): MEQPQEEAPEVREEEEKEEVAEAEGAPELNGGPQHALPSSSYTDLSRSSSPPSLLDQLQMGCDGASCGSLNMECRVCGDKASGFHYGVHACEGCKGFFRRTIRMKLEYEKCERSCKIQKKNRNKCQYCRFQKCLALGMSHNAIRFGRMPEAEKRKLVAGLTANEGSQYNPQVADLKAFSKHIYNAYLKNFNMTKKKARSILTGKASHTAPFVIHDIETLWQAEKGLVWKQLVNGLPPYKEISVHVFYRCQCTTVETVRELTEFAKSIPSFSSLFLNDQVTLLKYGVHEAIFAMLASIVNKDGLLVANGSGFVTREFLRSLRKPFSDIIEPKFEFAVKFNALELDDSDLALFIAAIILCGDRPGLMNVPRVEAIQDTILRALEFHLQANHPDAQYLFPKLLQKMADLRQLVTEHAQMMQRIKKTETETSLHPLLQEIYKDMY
Source text: as §1, §2, §3

PPAR alpha = molecular target: T3, PPAR alpha (Homo sapiens, UniProt Q07869); test: Selectivity, NR functional assay; format: cell-based
T3 construct: Eurofine Cerep / Eurofine Panlabs Discovery Services
Source text: as §1, §2, §3

PPAR gamma = molecular target: T4, PPAR gamma (Homo sapiens, UniProt P37231); test: Selectivity, NR functional assay; format: cell-based
T4 construct: Eurofine Cerep / Eurofine Panlabs Discovery Services
T4 sequence (P37231 whole entry): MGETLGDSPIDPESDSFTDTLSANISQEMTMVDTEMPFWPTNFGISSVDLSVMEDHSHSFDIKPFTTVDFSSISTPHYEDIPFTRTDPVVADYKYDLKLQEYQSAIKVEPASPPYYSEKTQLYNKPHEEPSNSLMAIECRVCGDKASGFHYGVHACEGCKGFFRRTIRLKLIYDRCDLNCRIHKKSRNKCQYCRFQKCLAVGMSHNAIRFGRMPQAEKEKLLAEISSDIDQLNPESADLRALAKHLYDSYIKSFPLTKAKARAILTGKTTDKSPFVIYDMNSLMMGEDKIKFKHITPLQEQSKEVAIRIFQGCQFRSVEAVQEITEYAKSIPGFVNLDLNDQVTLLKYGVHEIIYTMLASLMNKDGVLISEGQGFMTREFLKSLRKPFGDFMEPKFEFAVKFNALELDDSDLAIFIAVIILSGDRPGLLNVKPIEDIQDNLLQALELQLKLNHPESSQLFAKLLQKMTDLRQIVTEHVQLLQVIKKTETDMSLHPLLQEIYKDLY
Source text: as §1, §2, §3

CAR = molecular target: T5, CAR (Homo sapiens, UniProt Q14994); test: Selectivity, NR functional assay; format: cell-based
T5 construct: Eurofine Cerep / Eurofine Panlabs Discovery Services
T5 sequence (Q14994 whole entry): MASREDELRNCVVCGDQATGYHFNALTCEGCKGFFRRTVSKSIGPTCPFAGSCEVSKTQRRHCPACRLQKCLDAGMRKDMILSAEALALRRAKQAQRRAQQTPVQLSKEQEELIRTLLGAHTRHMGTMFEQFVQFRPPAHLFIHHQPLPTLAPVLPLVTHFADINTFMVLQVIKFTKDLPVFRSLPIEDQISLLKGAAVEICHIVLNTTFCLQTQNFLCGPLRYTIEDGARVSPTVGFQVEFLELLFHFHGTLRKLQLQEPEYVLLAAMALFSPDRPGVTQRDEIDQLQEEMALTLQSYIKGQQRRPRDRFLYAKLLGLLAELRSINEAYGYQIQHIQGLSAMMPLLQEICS
Source text: as §1, §2, §3

LXR beta = molecular target: T6, LXR beta (Homo sapiens, UniProt P55055); test: Selectivity, NR functional assay; format: cell-based
T6 construct: Eurofine Cerep / Eurofine Panlabs Discovery Services
T6 sequence (P55055 whole entry): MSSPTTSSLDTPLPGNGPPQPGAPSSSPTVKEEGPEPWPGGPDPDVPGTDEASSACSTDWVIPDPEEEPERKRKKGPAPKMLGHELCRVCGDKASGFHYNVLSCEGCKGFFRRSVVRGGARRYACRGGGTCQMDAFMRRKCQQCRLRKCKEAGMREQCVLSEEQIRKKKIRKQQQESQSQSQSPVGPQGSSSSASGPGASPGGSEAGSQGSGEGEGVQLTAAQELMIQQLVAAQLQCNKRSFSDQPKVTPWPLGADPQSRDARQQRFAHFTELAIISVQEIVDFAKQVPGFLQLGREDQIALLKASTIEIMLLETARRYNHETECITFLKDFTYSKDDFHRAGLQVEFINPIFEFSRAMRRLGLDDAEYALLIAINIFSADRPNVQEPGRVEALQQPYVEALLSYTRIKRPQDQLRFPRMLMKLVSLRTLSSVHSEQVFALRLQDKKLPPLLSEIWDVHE
Source text: as §1, §2, §3

PXR = molecular target: T7, PXR (Homo sapiens, UniProt O75469); test: Selectivity, NR functional assay; format: cell-based
T7 construct: Eurofine Cerep / Eurofine Panlabs Discovery Services
T7 sequence (O75469 whole entry): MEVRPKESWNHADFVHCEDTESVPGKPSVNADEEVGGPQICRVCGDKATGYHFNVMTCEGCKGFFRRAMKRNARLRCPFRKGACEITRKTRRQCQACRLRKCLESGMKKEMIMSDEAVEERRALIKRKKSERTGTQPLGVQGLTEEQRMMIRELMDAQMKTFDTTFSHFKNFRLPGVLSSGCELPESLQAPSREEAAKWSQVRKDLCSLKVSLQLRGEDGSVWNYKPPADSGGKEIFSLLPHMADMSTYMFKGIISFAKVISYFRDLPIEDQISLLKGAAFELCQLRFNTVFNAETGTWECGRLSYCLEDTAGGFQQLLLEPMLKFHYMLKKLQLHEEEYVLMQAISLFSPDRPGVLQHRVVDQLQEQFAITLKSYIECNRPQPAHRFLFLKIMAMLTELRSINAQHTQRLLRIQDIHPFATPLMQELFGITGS
Source text: as §1, §2, §3

OGTT blood glucose = format: in vivo; settings: single oral 100 mg/kg, overnight-fasted C57 mice, 2 g/kg glucose one hour later, blood 15 min after loading
Procedure: To measure blood glucose levels, 100 mg/kg of test compounds 20p and 20q or vehicle were administered orally to overnight-fasted C57 mice (n = 5 mice/group, control; n = 10). One hour later, all mice were challenged with 2 g/kg glucose, and blood samples were collected after 15 min of glucose loading. The blood glucose levels were measured using LabAssay Glucose (FUJIFILM Wako Pure Chemical Corporation, Osaka City, Osaka, Japan)[56].
Amersham Place Little Chalfont Buckinghamshire, HP7 9NA UK), and cDNA was synthesized using ReverTra Ace qPCR RT Master Mix (Toyobo Co., Ltd., Osaka City, Osaka, Japan). Real-time PCR was performed using a CFX96 Touch Real-Time PCR Analysis System (CFX Manager, Bio-Rad, 1000 Alfred Nobel Drive, Hercules, CA, USA), and the mRNA expression levels of SHP and CYP7A1, the target gene s of FXR, were measured using the intercalator […]
In vivo assay protocol (GLP-1)
Measurement of GLP-1 secretion: To measure plasma GLP-1 levels, 100 mg/kg of compounds 20p and 20q were administered orally to overnight -fasted C57 mice (n=5 animals/group). One hour later, all mice were challenged with 2 g/kg glucose, and blood samples were collected after 15 min of glucose challenge test. Plasma GLP-1 levels were measured using the GLP-1 ELISA Kit Wako, High Sensitive (FUJIFILM Wako Pure Chemical Corporation, Osaka city, Osaka, […]
In vivo assay protocol (OGTT test) […]

GPCRs and NRs = test: Broad panel of NRs and GPCRs; settings: in vitro agonist activity
Source text: as §1, §2, §3

ER alpha = molecular target: T8, ER alpha (Homo sapiens, UniProt P03372); test: Selectivity, binding assay
T8 construct: Eurofine Cerep / Eurofine Panlabs Discovery Services
T8 sequence (P03372 whole entry): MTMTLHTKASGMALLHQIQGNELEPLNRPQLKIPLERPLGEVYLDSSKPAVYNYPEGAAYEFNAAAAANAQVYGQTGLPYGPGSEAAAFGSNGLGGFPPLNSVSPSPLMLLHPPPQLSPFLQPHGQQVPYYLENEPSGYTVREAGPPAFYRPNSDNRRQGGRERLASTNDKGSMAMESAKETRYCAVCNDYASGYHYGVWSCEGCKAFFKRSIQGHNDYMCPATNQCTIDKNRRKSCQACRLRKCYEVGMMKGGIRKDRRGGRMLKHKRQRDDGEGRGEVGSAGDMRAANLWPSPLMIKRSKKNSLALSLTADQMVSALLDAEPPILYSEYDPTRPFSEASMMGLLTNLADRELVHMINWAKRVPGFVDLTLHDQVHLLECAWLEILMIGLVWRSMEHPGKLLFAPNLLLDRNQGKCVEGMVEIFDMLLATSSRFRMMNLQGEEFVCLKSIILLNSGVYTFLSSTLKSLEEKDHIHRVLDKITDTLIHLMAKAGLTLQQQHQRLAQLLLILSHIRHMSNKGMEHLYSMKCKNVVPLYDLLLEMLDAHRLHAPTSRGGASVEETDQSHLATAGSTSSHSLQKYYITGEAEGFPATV
Source text: as §1, §2, §3

RXR alpha = molecular target: T9, RXR alpha (Homo sapiens, UniProt P19793); test: Selectivity, binding assay
T9 construct: Eurofine Cerep / Eurofine Panlabs Discovery Services
T9 sequence (P19793 whole entry): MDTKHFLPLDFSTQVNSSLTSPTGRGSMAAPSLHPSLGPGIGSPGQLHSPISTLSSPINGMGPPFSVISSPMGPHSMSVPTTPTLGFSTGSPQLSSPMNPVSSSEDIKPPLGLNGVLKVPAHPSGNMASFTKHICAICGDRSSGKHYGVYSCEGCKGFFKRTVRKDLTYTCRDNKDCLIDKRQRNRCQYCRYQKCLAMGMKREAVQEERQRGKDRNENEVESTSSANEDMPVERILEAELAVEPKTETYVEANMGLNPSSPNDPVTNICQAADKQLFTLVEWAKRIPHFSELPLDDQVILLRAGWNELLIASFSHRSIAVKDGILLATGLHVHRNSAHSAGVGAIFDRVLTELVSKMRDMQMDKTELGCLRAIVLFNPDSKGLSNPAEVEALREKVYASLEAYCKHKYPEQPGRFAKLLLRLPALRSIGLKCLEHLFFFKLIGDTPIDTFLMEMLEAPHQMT
Source text: as §1, §2, §3

ER beta = molecular target: T10, ER beta (Homo sapiens, UniProt Q92731); test: Selectivity, binding assay
T10 construct: Eurofine Cerep / Eurofine Panlabs Discovery Services
T10 sequence (Q92731 whole entry): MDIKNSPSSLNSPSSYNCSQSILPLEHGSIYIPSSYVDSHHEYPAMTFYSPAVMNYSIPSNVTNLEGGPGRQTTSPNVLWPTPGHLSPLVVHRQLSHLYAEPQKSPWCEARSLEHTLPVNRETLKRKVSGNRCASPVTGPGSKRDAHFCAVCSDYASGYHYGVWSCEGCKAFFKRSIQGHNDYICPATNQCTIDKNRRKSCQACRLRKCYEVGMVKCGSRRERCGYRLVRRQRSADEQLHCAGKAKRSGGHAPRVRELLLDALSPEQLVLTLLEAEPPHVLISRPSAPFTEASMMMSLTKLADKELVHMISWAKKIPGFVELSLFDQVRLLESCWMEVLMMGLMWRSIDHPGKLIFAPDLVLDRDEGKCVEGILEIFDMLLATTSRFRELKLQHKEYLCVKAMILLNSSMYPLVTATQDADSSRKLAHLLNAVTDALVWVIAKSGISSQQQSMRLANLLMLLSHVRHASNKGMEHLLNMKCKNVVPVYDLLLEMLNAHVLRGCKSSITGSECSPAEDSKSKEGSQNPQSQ
Source text: as §1, §2, §3

GPR40 = molecular target: T11, GPR40 (Homo sapiens, UniProt O14842); test: Selectivity, cellular functional assay; format: cell-based
T11 construct: Eurofine Cerep / Eurofine Panlabs Discovery Services
T11 sequence (O14842 whole entry): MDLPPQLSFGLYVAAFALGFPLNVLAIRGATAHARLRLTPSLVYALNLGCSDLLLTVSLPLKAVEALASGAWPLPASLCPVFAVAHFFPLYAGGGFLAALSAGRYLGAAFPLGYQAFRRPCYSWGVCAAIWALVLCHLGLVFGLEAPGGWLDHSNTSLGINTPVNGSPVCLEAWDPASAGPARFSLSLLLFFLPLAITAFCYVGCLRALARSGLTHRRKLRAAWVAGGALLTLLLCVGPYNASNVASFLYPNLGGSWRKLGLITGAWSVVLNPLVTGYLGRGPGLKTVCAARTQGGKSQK
Source text: as §1, §2, §3

GPR120 = molecular target: T12, GPR120 (Homo sapiens, UniProt Q5NUL3); test: Selectivity, cellular functional assay; format: cell-based
T12 construct: Eurofine Cerep / Eurofine Panlabs Discovery Services
T12 sequence (Q5NUL3 whole entry): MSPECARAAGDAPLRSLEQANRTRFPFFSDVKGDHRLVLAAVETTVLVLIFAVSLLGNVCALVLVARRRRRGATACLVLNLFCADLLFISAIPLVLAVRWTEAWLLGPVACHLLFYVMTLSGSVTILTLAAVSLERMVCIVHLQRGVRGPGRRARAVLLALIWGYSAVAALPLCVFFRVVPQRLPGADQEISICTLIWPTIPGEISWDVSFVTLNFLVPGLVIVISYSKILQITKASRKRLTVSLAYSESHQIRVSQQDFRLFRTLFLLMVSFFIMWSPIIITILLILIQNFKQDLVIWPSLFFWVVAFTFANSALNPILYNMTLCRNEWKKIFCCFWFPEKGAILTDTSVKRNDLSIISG
Source text: as §1, §2, §3

GPR119 = molecular target: T13, GPR119 (Homo sapiens, UniProt Q8TDV5); test: Selectivity, cellular functional assay; format: cell-based
T13 construct: Eurofine Cerep / Eurofine Panlabs Discovery Services
T13 sequence (Q8TDV5 whole entry): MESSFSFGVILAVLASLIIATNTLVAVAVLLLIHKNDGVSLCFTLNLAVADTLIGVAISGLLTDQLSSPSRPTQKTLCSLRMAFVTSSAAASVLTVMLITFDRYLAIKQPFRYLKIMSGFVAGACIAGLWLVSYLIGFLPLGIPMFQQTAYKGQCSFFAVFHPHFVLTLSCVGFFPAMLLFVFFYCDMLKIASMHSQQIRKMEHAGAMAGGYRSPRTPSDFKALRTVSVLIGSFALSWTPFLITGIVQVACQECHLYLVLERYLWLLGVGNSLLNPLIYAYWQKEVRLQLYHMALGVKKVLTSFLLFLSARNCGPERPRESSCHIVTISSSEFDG
Source text: as §1, §2, §3

## COc1cc(Cl)cc(N(CC23CCC(c4ccc(OC)c(C#N)c4)(CC2)CC3)C(=O)c2ccncc2C)c1 [Compound 20p]
LXR alpha; 30 µM, read-out: LXR alpha agonist effect, % of control response to reference agonist
  activity at 30 µM: 0.2%
LXR alpha; NR functional assay
  EC50: > 30 µM
PPAR delta; 30 µM, read-out: PPAR delta agonist effect, % of control response to reference agonist
  activity at 30 µM: -3.6%
PPAR delta; NR functional assay
  EC50: > 30 µM
PPAR alpha; 30 µM, read-out: PPAR alpha agonist effect, % of control response to reference agonist
  activity at 30 µM: 0%
PPAR alpha; NR functional assay
  EC50: > 30 µM
PPAR gamma; 30 µM, read-out: PPAR gamma agonist effect, % of control response to reference agonist
  activity at 30 µM: -1%
PPAR gamma; NR functional assay
  EC50: > 30 µM
CAR; 30 µM, read-out: CAR agonist effect, % of control response to reference agonist
  activity at 30 µM: -2.5%
CAR; NR functional assay
  EC50: > 30 µM
LXR beta; 30 µM, read-out: LXR beta agonist effect, % of control response to reference agonist
  activity at 30 µM: 3.7%
LXR beta; NR functional assay
  EC50: > 30 µM
PXR; 30 µM, read-out: PXR agonist effect, % of control response to reference agonist
  activity at 30 µM: 4.5%
PXR; NR functional assay
  EC50: > 30 µM
OGTT blood glucose
  Blood glucose level on OGTT: robustly lowered the blood glucose level
GPCRs and NRs
  Off-target activity against GPCRs and NRs (in words): no significant off-target activity against GPCRs and NRs
ER alpha; 30 µM, read-out: ER alpha binding, % inhibition of the binding of radioactively labeled ligand
  inhibition at 30 µM: -16.6%
ER alpha; binding assay
  EC50: > 30 µM
RXR alpha; 30 µM, read-out: RXR alpha binding, % inhibition of the binding of radioactively labeled ligand
  inhibition at 30 µM: -12.3%
RXR alpha; binding assay
  EC50: > 30 µM
ER beta; 30 µM, read-out: ER beta binding, % inhibition of the binding of radioactively labeled ligand
  inhibition at 30 µM: 17%
ER beta; binding assay
  EC50: > 30 µM
GPR40; 30 µM, read-out: GPR40 cellular agonist effect, % of control response to reference agonist
  activity at 30 µM: 5.9%
GPR40; cellular functional assay
  EC50: > 30 µM
GPR120; 30 µM, read-out: GPR120 cellular agonist effect, % of control response to reference agonist
  activity at 30 µM: -5.2%
GPR120; cellular functional assay
  EC50: > 30 µM
GPR119; 30 µM, read-out: GPR119 cellular agonist effect, % of control response to reference agonist
  activity at 30 µM: 1.8%
GPR119; cellular functional assay
  EC50: > 30 µM

## COc1ccc(C23CCC(CN(C(=O)c4ccncc4C)c4cc(Cl)cc(Cl)c4)(CC2)CC3)cc1C#N [Compound 20q]
OGTT blood glucose
  Blood glucose level on OGTT: did not reduce the blood glucose level
